From patent publication US7300944B2, “Pyrazolo[3,4-b]pyridin-6-ones as GSK-3 inhibitors” (Pfizer Inc., priority 2003, dated 2007)

Target: GSK-3 (Homo sapiens, UniProt P49841)
Test: GSK-3 inhibition, cell-free 33P-ATP peptide substrate SPA assay
Format: biochemical
Details: read-out: inhibitory activity against GSK-3, expressed as IC50
Experimental: The specific activity of a compound, stereoisomer, or prodrug of formula (I) in inhibiting GSK-3 can be determined in both cell-free and cell-based assays, both of which have been previously described in the relevant art. See, for example, U.S. Pat. Nos. 6,417,185 and 6,489,344, the disclosures of which are incorporated herein by reference in their entirety.
A cell-free assay can be generally carried out by incubating GSK-3 with a peptide substrate, radiolabeled ATP (e.g., for example, γ^33P- or γ^32P-ATP, both of which are available from Amersham; Arlington Heights, Ill.), magnesium ions, and the compound to be assayed. […] The amount of γ^33P or […] remaining in each well after washing is then quantified to determine the amount of radiolabeled phosphate incorporated into the peptide substrate. […]
Another example of a GSK-3 assay, similar to the one described hereinabove, is as follows: enzyme activities are assayed as the incorporation of ^33P from gamma phosphate of ^33P-ATP (Amersham; Arlington Heights, Ill.; catalog #AH-9968) into biotinylated peptide substrate PKTP-KKAKKL. […] The final concentration of ATP is 0.5 μM (final specific radioactivity of […]), and the final concentration of substrate is 0.75 μM. […] Radioactivity associated with the beads is then quantified by scintillation counting. […]

Sequence of GSK-3 (P49841 whole entry): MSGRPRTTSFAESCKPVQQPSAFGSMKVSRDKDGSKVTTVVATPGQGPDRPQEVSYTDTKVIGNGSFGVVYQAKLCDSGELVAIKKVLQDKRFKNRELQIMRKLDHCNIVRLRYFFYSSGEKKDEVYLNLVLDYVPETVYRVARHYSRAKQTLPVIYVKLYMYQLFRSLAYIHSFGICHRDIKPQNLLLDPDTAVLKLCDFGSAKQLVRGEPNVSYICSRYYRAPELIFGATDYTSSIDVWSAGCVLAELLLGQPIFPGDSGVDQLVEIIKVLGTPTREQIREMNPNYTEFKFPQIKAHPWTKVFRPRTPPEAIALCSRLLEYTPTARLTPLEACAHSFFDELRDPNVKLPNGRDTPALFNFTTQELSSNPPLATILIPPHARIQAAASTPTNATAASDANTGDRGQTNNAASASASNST

IC50: 6.5 nM
Compound: COc1nccc(C2CC(=O)Nc3n[nH]c(C4CCC4)c32)n1 (stereo not shown) [Example 45, 3-Cyclobutyl-4-(2-methoxy-pyrimidin-4-yl)-2,4,5,7-tetrahydro-pyrazolo[3,4-b]pyridin-6-one]
